Data: ChEMBL document CHEMBL1201862, “PubChem BioAssay data set” (2004)
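Exposure lasted 48 hours, with cells grown in 96-well plates and compounds tested at five concentrations. At the GI50, growth is halved.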 The source made the active and inactive calls. Cut-off read from the data, not from the text of the source: active = GI50 up to about 1.1 µM and inactive = higher.

What was measured:
Assay in all cases: growth of human tumour cells (NCI), 48 h
HCT-116 = system: HCT-116
DLD-1 = system: DLD-1
HOP-18 = system: HOP-18
COLO 205 = system: COLO 205
RXF 393 = system: RXF 393
CCRF-CEM = system: CCRF-CEM
MOLT-4 = system: MOLT-4
EKVX = system: EKVX
SF-539 = system: SF-539
HOP-62 = system: HOP-62
HOP-92 = system: HOP-92
SK-MEL-28 = system: SK-MEL-28
SK-MEL-5 = system: SK-MEL-5
NCI-H522 = system: NCI-H522
OVCAR-3 = system: OVCAR-3
NCI/ADR-RES = system: NCI/ADR-RES
SF-295 = system: SF-295
UACC-257 = system: UACC-257
DMS-273 = system: DMS-273
UACC-62 = system: UACC-62
UO-31 = system: UO-31
SK-OV-3 = system: SK-OV-3
SNB-75 = system: SNB-75
XF498 = system: XF498
HT-29 = system: HT-29
M19-MEL = system: M19-MEL
SNB-19 = system: SNB-19
KM-20L2 = system: KM-20L2
A498 = system: A498
SW-620 = system: SW-620
NCI-H23 = system: NCI-H23
Malme-3M = system: Malme-3M
RPMI-8226 = system: RPMI-8226
HL-60 = system: HL-60
SF-268 = system: SF-268
OVCAR-4 = system: OVCAR-4
KM12 = system: KM12
A549 = system: A549
NCI-H460 = system: NCI-H460
SK-MEL-2 = system: SK-MEL-2
IGROV-1 = system: IGROV-1
OVCAR-5 = system: OVCAR-5
HCC 2998 = system: HCC 2998
NCI-H226 = system: NCI-H226
MCF7 = system: MCF7
LOX IMVI = system: LOX IMVI
SNB-78 = system: SNB-78
K562 = system: K562
OVCAR-8 = system: OVCAR-8
HCT-15 = system: HCT-15
U-251 = system: U-251
SN12C = system: SN12C
M14 = system: M14
CAKI-1 = system: CAKI-1
LXFL 529 = system: LXFL 529
ACHN = system: ACHN
SR = system: SR
TK-10 = system: TK-10
786-0 = system: 786-0

With `O=S(=O)(O)c1cc2ccc1/C=C\c1ccc(cc1S(=O)(=O)O)/N=N\c1ccc(c(S(=O)(=O)O)c1)/C=C\c1ccc(cc1S(=O)(=O)O)/N=N\2` the GI50 (HCT-116) was > 100 µM (inactive), the GI50 (DLD-1) was > 100 µM (inactive) and the GI50 (HOP-18) was > 100 µM (inactive). For the same compound, the GI50 (COLO 205) was > 100 µM (inactive), the GI50 (RXF 393) was > 100 µM (inactive) and the GI50 (CCRF-CEM) was > 100 µM (inactive). For the same compound, the GI50 (MOLT-4) was > 100 µM (inactive), the GI50 (EKVX) was > 100 µM (inactive) and the GI50 (SF-539) was > 100 µM (inactive). The GI50 (HOP-62) was > 100 µM (inactive), the GI50 (HOP-92) was > 100 µM (inactive) and the GI50 (SK-MEL-28) was > 100 µM (inactive). The GI50 (SK-MEL-5) was > 100 µM (inactive), the GI50 (NCI-H522) was > 100 µM (inactive) and the GI50 (OVCAR-3) was > 100 µM (inactive). The GI50 (NCI/ADR-RES) was > 100 µM (inactive), the GI50 (SF-295) was > 100 µM (inactive) and the GI50 (UACC-257) was > 100 µM (inactive). For the same compound, the GI50 (DMS-273) was > 100 µM (inactive), the GI50 (UACC-62) was > 100 µM (inactive) and the GI50 (UO-31) was > 100 µM (inactive). The GI50 (SK-OV-3) was > 100 µM (inactive), the GI50 (SNB-75) was > 100 µM (inactive) and the GI50 (XF498) was > 88.3 µM (inactive). The GI50 (HT-29) was > 100 µM (inactive), the GI50 (M19-MEL) was > 100 µM (inactive) and the GI50 (SNB-19) was > 100 µM (inactive). The GI50 (KM-20L2) was > 100 µM (inactive), the GI50 (A498) was > 100 µM (inactive) and the GI50 (SW-620) was > 100 µM (inactive). The GI50 (NCI-H23) was > 100 µM (inactive), the GI50 (Malme-3M) was > 100 µM (inactive) and the GI50 (RPMI-8226) was > 100 µM (inactive). For the same compound, the GI50 (HL-60) was > 100 µM (inactive), the GI50 (SF-268) was > 100 µM (inactive) and the GI50 (OVCAR-4) was > 86.1 µM (inactive). For the same compound, the GI50 (KM12) was > 100 µM (inactive), the GI50 (A549) was > 100 µM (inactive) and the GI50 (NCI-H460) was > 100 µM (inactive). The GI50 (SK-MEL-2) was > 100 µM (inactive), the GI50 (IGROV-1) was > 100 µM (inactive) and the GI50 (OVCAR-5) was > 100 µM (inactive). For the same compound, the GI50 (HCC 2998) was > 100 µM (inactive), the GI50 (NCI-H226) was > 100 µM (inactive) and the GI50 (MCF7) was > 100 µM (inactive). The GI50 (LOX IMVI) was > 100 µM (inactive), the GI50 (SNB-78) was > 100 µM (inactive) and the GI50 (K562) was > 100 µM (inactive). The GI50 (OVCAR-8) was > 100 µM (inactive), the GI50 (HCT-15) was over 100 µM and the GI50 (U-251) was > 100 µM (inactive). For the same compound, the GI50 (SN12C) was > 100 µM (inactive).

In the case of `COc1ccc(C2C(Cl)C(=O)N2NC(=O)Cc2ccccc2)cc1` (stereo unspecified), the GI50 (HCT-116) was > 100 µM (inactive), the GI50 (DLD-1) was > 100 µM (inactive) and the GI50 (HOP-18) was > 100 µM (inactive). The GI50 (COLO 205) was > 100 µM (inactive), the GI50 (RXF 393) was > 100 µM (inactive) and the GI50 (CCRF-CEM) was > 100 µM (inactive). For the same compound, the GI50 (MOLT-4) was > 100 µM (inactive), the GI50 (EKVX) was > 100 µM (inactive) and the GI50 (HOP-62) was > 100 µM (inactive). The GI50 (M14) was > 100 µM (inactive), the GI50 (SK-MEL-28) was > 100 µM (inactive) and the GI50 (SK-MEL-5) was > 100 µM (inactive). The GI50 (NCI-H522) was > 100 µM (inactive), the GI50 (CAKI-1) was > 100 µM (inactive) and the GI50 (OVCAR-3) was > 100 µM (inactive). The GI50 (LXFL 529) was > 100 µM (inactive), the GI50 (SF-295) was > 100 µM (inactive) and the GI50 (UACC-257) was > 100 µM (inactive). For the same compound, the GI50 (DMS-273) was > 100 µM (inactive), the GI50 (UACC-62) was > 100 µM (inactive) and the GI50 (UO-31) was > 100 µM (inactive). The GI50 (ACHN) was > 100 µM (inactive), the GI50 (SK-OV-3) was > 100 µM (inactive) and the GI50 (SNB-75) was > 100 µM (inactive). The GI50 (XF498) was > 100 µM (inactive), the GI50 (HT-29) was > 100 µM (inactive) and the GI50 (M19-MEL) was > 100 µM (inactive). The GI50 (SNB-19) was > 100 µM (inactive), the GI50 (SR) was > 100 µM (inactive) and the GI50 (KM-20L2) was > 100 µM (inactive). The GI50 (SW-620) was > 100 µM (inactive), the GI50 (NCI-H23) was > 100 µM (inactive) and the GI50 (Malme-3M) was > 100 µM (inactive). For the same compound, the GI50 (RPMI-8226) was > 100 µM (inactive), the GI50 (HL-60) was > 100 µM (inactive) and the GI50 (SF-268) was > 100 µM (inactive). The GI50 (TK-10) was > 100 µM (inactive), the GI50 (OVCAR-4) was > 100 µM (inactive) and the GI50 (KM12) was > 100 µM (inactive). For the same compound, the GI50 (A549) was > 100 µM (inactive), the GI50 (NCI-H460) was > 100 µM (inactive) and the GI50 (SK-MEL-2) was > 100 µM (inactive). For the same compound, the GI50 (IGROV-1) was > 100 µM (inactive), the GI50 (OVCAR-5) was > 100 µM (inactive) and the GI50 (HCC 2998) was > 100 µM (inactive). For the same compound, the GI50 (NCI-H226) was > 100 µM (inactive), the GI50 (LOX IMVI) was > 100 µM (inactive) and the GI50 (SNB-78) was > 100 µM (inactive). The GI50 (K562) was > 100 µM (inactive), the GI50 (OVCAR-8) was > 100 µM (inactive) and the GI50 (786-0) was > 100 µM (inactive). The GI50 (HCT-15) was over 100 µM, the GI50 (U-251) was > 100 µM (inactive) and the GI50 (SN12C) was > 100 µM (inactive).
